Experimental data as given in patent US8802597B2, “Herbicidal pyrimidines” (E I du Pont de Nemours and Company, priority 2003, dated 2014).
Where two headings read alike, the source gives them in different places.

Legend:
Test in all cases: Test C pre/postemergence
Type in all cases: in vivo
[1] = system: bermudagrass (Cynodon dactylon); conditions: for pest or weed control at 62 g/ha / pest or weed control at 125 g/ha / pest or weed control at 250 g/ha / pest or weed control at 500 g/ha: Cynodon dactylon
From the text: (§1) Seeds or nutlets of plant species selected from bermudagrass (Cynodon dactylon), Surinam grass (Brachiaria decumbens), cocklebur (Xanthium strumarium), corn (Zea mays), crabgrass (Digitaria sanguinalis), woolly cupgrass (Eriochloa villosa), giant foxtail (Setaria faberii), goosegrass (Eleusine indica), johnsongrass (Sorghum halepense), kochia (Kochia scoparia), lambsquarters (Chenopodium album), morningglory (Ipomoea coccinea), eastern black nightshade (Solanum ptycanthum), yellow nutsedge (Cyperus esculentus), pigweed (Amaranthus retroflexus), common ragweed (Ambrosia elatior), soybean (Glycine max), common (oilseed) sunflower (Helianthus annuus), and velvetleaf (Abutilon theophrasti) were planted and treated preemergence with test chemicals formulated in a non-phytotoxic solvent mixture which included a surfactant.
(§2) At the same time, plants selected from these crop and weed species and also winter barley (Hordeum vulgare), blackgrass (Alopecurus myosuroides), canarygrass (Phalaris minor), chickweed (Stellaria media), downy brome (Bromus tectorum), green foxtail (Setaria viridis), Italian ryegrass (Lolium multiflorum), wheat (Triticum aestivum), wild oat (Avena fatua) and windgrass (Apera spica-venti) were treated with postemergence applications of some of the test chemicals formulated in the same manner. Plants ranged in height from 2 to 18 cm (1- to 4-leaf stage) for postemergence treatments. Plant species in the flooded paddy test consisted of rice (Oryza sativa), umbrella sedge (Cyperus difformis), duck salad (Heteranthera limosa) and barnyardgrass (Echinochloa crus-galli) grown to the 2-leaf stage for testing. Treated plants and controls were maintained in a greenhouse for 12 to 14 days, after which time all species were compared to controls and visually evaluated. Plant response ratings, summarized in Table C, are based on a scale of 0 to 100 where 0 is no effect and 100 is complete control. A dash (-) response means no test result.

[2] = system: giant foxtail (Setaria faberii); conditions: for pest or weed control at 125 g/ha / pest or weed control at 500 g/ha / pest or weed control at 62 g/ha / pest or weed control at 250 g/ha: Setaria faberi
From the text: as §1, §2

[3] = system: johnsongrass (Sorghum halepense); conditions: for pest or weed control at 62 g/ha / pest or weed control at 125 g/ha / pest or weed control at 250 g/ha / pest or weed control at 500 g/ha: Sorghum halepense
From the text: as §1, §2

soybean (Glycine max) = conditions: for plant injury at 62 g/ha / plant injury at 125 g/ha / plant injury at 250 g/ha / plant injury at 500 g/ha: Glycine max
From the text: as §1, §2

[4] = Postemergence, 62 g ai/ha, scale 0 to 100 (0 no effect, 100 complete control)
[5] = Postemergence, 125 g ai/ha, scale 0 to 100 (0 no effect, 100 complete control)
[6] = Postemergence, 250 g ai/ha, scale 0 to 100
[7] = Postemergence, 500 g ai/ha, scale 0 to 100
[8] = Preemergence, 62 g ai/ha, scale 0 to 100, 0 no effect, 100 complete control
[9] = Preemergence, 125 g ai/ha, scale 0 to 100
[10] = Preemergence, 250 g ai/ha, scale 0 to 100
[11] = Preemergence, 500 g ai/ha, scale 0 to 100

Nc1nc(C2CC2)nc(C=NO)c1Br [Compound 27]
Bermudagrass plant response rating [1, 4]: 0 | Bermudagrass plant response rating [1, 5]: 0 | Plant response rating, Bermudagrass [1, 6]: 0 | Plant response rating, Bermudagrass [1, 7]: 30 | Plant response rating, Bermudagrass [1, 8]: 0 | Plant response rating, Bermudagrass [1, 9]: 0 | Plant response rating, Bermudagrass [1, 10]: 0 | Plant response rating, Bermudagrass [1, 11]: 0 | Foxtail, Giant plant response rating [2, 4]: 0 | Foxtail, Giant plant response rating [2, 5]: 0 | Plant response rating, Foxtail, Giant [2, 6]: 0 | Plant response rating, Foxtail, Giant [2, 7]: 0 | Plant response rating, Foxtail, Giant [2, 8]: 0 | Plant response rating, Foxtail, Giant [2, 9]: 0 | Plant response rating, Foxtail, Giant [2, 10]: 0 | Plant response rating, Foxtail, Giant [2, 11]: 20 | Johnsongrass plant response rating [3, 4]: 0 | Johnsongrass plant response rating [3, 5]: 0 | Plant response rating, Johnsongrass [3, 6]: 0 | Plant response rating, Johnsongrass [3, 7]: 0 | Plant response rating, Johnsongrass [3, 8]: 0 | Plant response rating, Johnsongrass [3, 9]: 20 | Plant response rating, Johnsongrass [3, 10]: 45 | Plant response rating, Johnsongrass [3, 11]: 65 | Soybean plant response rating (soybean (Glycine max); [4]): 30 | Soybean plant response rating (soybean (Glycine max); [5]): 45 | Plant response rating, Soybean (soybean (Glycine max); [6]): 85 | Plant response rating, Soybean (soybean (Glycine max); [7]): 95 | Plant response rating, Soybean (soybean (Glycine max); [8]): 0 | Plant response rating, Soybean (soybean (Glycine max); [9]): 0 | Plant response rating, Soybean (soybean (Glycine max); [10]): 20 | Plant response rating, Soybean (soybean (Glycine max); [11]): 75

CCOC(=O)c1nc(C2CC2)nc(N)c1Cl [Compound 4, ethyl 6-amino-5-chloro-2-cyclopropyl-4-pyrimidinecarboxylate]
pest or weed control at 62 g/ha ([1]; post-emergence, Postemergence, 62 g ai/ha, scale 0 to 100 (0 no effect, 100 complete control), read-out: Bermudagrass plant response rating): 40% | pest or weed control at 125 g/ha ([1]; post-emergence, Postemergence, 125 g ai/ha, scale 0 to 100, read-out: Plant response rating, Bermudagrass): 65% | pest or weed control at 250 g/ha ([1]; post-emergence, Postemergence, 250 g ai/ha, scale 0 to 100, read-out: Plant response rating, Bermudagrass): 70% | pest or weed control at 500 g/ha ([1]; post-emergence, Postemergence, 500 g ai/ha, scale 0 to 100, read-out: Plant response rating, Bermudagrass): 80% | pest or weed control at 62 g/ha ([1]; pre-emergence, Preemergence, 62 g ai/ha, scale 0 to 100, 0 no effect, 100 complete control, read-out: Plant response rating, Bermudagrass): 0% | pest or weed control at 125 g/ha ([1]; pre-emergence, Preemergence, 125 g ai/ha, scale 0 to 100, read-out: Plant response rating, Bermudagrass): 20% | pest or weed control at 250 g/ha ([1]; pre-emergence, Preemergence, 250 g ai/ha, scale 0 to 100, read-out: Plant response rating, Bermudagrass): 45% | pest or weed control at 500 g/ha ([1]; pre-emergence, Preemergence, 500 g ai/ha, scale 0 to 100, read-out: Plant response rating, Bermudagrass): 95% | pest or weed control at 125 g/ha ([2]; post-emergence, Postemergence, 125 g ai/ha, scale 0 to 100 (0 no effect, 100 complete control), read-out: Foxtail, Giant plant response rating): 75% | pest or weed control at 500 g/ha ([2]; post-emergence, Postemergence, 500 g ai/ha, scale 0 to 100, read-out: Plant response rating, Foxtail, Giant): 95% | pest or weed control at 62 g/ha ([2]; post-emergence, Postemergence, 62 g ai/ha, scale 0 to 100 (0 no effect, 100 complete control), read-out: Foxtail, Giant plant response rating): 60% | pest or weed control at 250 g/ha ([2]; post-emergence, Postemergence, 250 g ai/ha, scale 0 to 100, read-out: Plant response rating, Foxtail, Giant): 85% | pest or weed control at 62 g/ha ([2]; pre-emergence, Preemergence, 62 g ai/ha, scale 0 to 100, 0 no effect, 100 complete control, read-out: Plant response rating, Foxtail, Giant): 0% | pest or weed control at 125 g/ha ([2]; pre-emergence, Preemergence, 125 g ai/ha, scale 0 to 100, read-out: Plant response rating, Foxtail, Giant): 40% | pest or weed control at 250 g/ha ([2]; pre-emergence, Preemergence, 250 g ai/ha, scale 0 to 100, read-out: Plant response rating, Foxtail, Giant): 75% | pest or weed control at 500 g/ha ([2]; pre-emergence, Preemergence, 500 g ai/ha, scale 0 to 100, read-out: Plant response rating, Foxtail, Giant): 85% | pest or weed control at 62 g/ha ([3]; post-emergence, Postemergence, 62 g ai/ha, scale 0 to 100 (0 no effect, 100 complete control), read-out: Johnsongrass plant response rating): 70% | pest or weed control at 125 g/ha ([3]; post-emergence, Postemergence, 125 g ai/ha, scale 0 to 100 (0 no effect, 100 complete control), read-out: Johnsongrass plant response rating): 80% | pest or weed control at 250 g/ha ([3]; post-emergence, Postemergence, 250 g ai/ha, scale 0 to 100, read-out: Plant response rating, Johnsongrass): 95% | pest or weed control at 500 g/ha ([3]; post-emergence, Postemergence, 500 g ai/ha, scale 0 to 100, read-out: Plant response rating, Johnsongrass): 95% | pest or weed control at 62 g/ha ([3]; pre-emergence, Preemergence, 62 g ai/ha, scale 0 to 100, 0 no effect, 100 complete control, read-out: Plant response rating, Johnsongrass): 50% | pest or weed control at 125 g/ha ([3]; pre-emergence, Preemergence, 125 g ai/ha, scale 0 to 100, read-out: Plant response rating, Johnsongrass): 70% | pest or weed control at 250 g/ha ([3]; pre-emergence, Preemergence, 250 g ai/ha, scale 0 to 100, read-out: Plant response rating, Johnsongrass): 90% | pest or weed control at 500 g/ha ([3]; pre-emergence, Preemergence, 500 g ai/ha, scale 0 to 100, read-out: Plant response rating, Johnsongrass): 95% | plant injury at 62 g/ha (soybean (Glycine max); post-emergence, Postemergence, 62 g ai/ha, scale 0 to 100 (0 no effect, 100 complete control), read-out: Soybean plant response rating): 100% | plant injury at 125 g/ha (soybean (Glycine max); post-emergence, Postemergence, 125 g ai/ha, scale 0 to 100 (0 no effect, 100 complete control), read-out: Soybean plant response rating): 100% | plant injury at 250 g/ha (soybean (Glycine max); post-emergence, Postemergence, 250 g ai/ha, scale 0 to 100, read-out: Plant response rating, Soybean): 100% | plant injury at 500 g/ha (soybean (Glycine max); post-emergence, Postemergence, 500 g ai/ha, scale 0 to 100, read-out: Plant response rating, Soybean): 100% | plant injury at 62 g/ha (soybean (Glycine max); pre-emergence, Preemergence, 62 g ai/ha, scale 0 to 100, 0 no effect, 100 complete control, read-out: Plant response rating, Soybean): 95% | plant injury at 125 g/ha (soybean (Glycine max); pre-emergence, Preemergence, 125 g ai/ha, scale 0 to 100, read-out: Plant response rating, Soybean): 100% | plant injury at 250 g/ha (soybean (Glycine max); pre-emergence, Preemergence, 250 g ai/ha, scale 0 to 100, read-out: Plant response rating, Soybean): 100% | plant injury at 500 g/ha (soybean (Glycine max); pre-emergence, Preemergence, 500 g ai/ha, scale 0 to 100, read-out: Plant response rating, Soybean): 100%
